Assay results as given in paper PMC4757451 (Biochemistry, 2015).

Experiments:
[1] = target: T1, CYP3A4 (Homo sapiens, UniProt P08684, S18F); test: Steady-state NADPH oxidation by CYP3A4 Nanodiscs with CPR; assay type: biochemical
[2] = target: T1, CYP3A4; test: Product formation; conditions: for Product formation rate after second substrate binding: intermediate with two molecules bound ([20]/[02]); for PGS Product Rate / CBZ Product Rate: mixed substrate global fit

CC(=O)[C@H]1CC[C@H]2[C@@H]3CCC4=CC(=O)CC[C@]4(C)[C@H]3CC[C@]12C [PGS, progesterone]
Maximum rate of NADPH consumption, pure substrate ([1]; at 30 µM PGS, at 200 µM CBZ): 240 min⁻¹ | NADPH consumption rate ([1]; intermediate [20], pure PGS): 388 min⁻¹ | Rate of NADPH consumption at higher PGS concentrations ([1]; pure PGS, above 30 µM, decreases down to this value): 160 min⁻¹ | PGS product formation rate in CBZ/PGS mixture at high concentration ([2]; CBZ/PGS 12:1 mixture, 60 µM and higher PGS): 4 min⁻¹ | Maximum PGS product formation rate in CBZ/PGS mixture ([2]; CBZ/PGS 12:1 mixture, reached at 18–20 µM PGS): 5 min⁻¹ | Factor by which PGS hydroxylation in [11] is slower than in [20] ([2]; [11] versus [20]): 4 | Hill coefficient nH ([2]; fitting with the Hill equation, pure PGS): 1.7 | Product formation rate after second substrate binding ([2]; pure substrate): 14.7 min⁻¹ | Rate of PGS hydroxylation ([2]; mixed intermediate [11]): 4 min⁻¹ | PGS Product Rate ([2]; mixed intermediate [11]): 4 (3.7 – 4.2) nmol/nmol/min | PGS Product Rate ([2]; mixed intermediate [12]): 0 (0.01) nmol/nmol/min | PGS Product Rate ([2]; mixed intermediate [21]): 0 (0.02) nmol/nmol/min

NC(=O)N1c2ccccc2C=Cc2ccccc21 [CBZ, carbamazepine]
Product formation rate with only one substrate molecule bound ([2]; first binding intermediate, fitted parameters, in words): negligible | Product formation rate after third binding event ([2]; intermediate with three molecules bound ([03]), pure substrate): 3 min⁻¹ | Product formation rate after second substrate binding ([2]; pure substrate): 1.7 min⁻¹ | CBZ Product Rate ([2]; mixed intermediate [11]): 0 (0.01) nmol/nmol/min | CBZ product formation rate ([2]; mixed intermediate [12]): 4.5 min⁻¹ | CBZ Product Rate ([2]; mixed intermediate [12]): 4.5 (2.0 – 6.0) nmol/nmol/min | CBZ product formation rate ([2]; mixed intermediate [21]): 11 min⁻¹ | CBZ Product Rate ([2]; mixed intermediate [21]): 11 (9.8 – 12.2) nmol/nmol/min
